What was measured:
[1] = Henry solubility constant Hcp at 298.15 K (mol/(m3 Pa))
[2] = Henry solubility constant Hcp at 293 K (mol/(m3 Pa))
[3] = reference: O’Sullivan et al. (1996)
[4] = reference: Sheikheldin et al. (2001)
[5] = reference: Kames and Schurath (1995)
[6] = reference: Munz and Roberts (1987)
[7] = reference: Pearson and McConnell (1975)
[8] = reference: Bissonette et al. (1990)
[9] = reference: Hunter-Smith et al. (1983)
[10] = reference: Warner et al. (1980)
[11] = reference: Chiang et al. (1998)
[12] = reference: Yurteri et al. (1987)
[13] = reference: Blatchley et al. (1992)
[14] = reference: Wolfenden and Williams (1983)
[15] = reference: De Maagd et al. (1998)
[16] = reference: Murphy et al. (1983a)

OO [hydrogen peroxide]
Henry solubility constant Hcp ([1]; reference: Huang and Chen (2010)): 1100
Henry solubility constant Hcp ([1]; reference: Hwang and Dasgupta (1985)): 670
Henry solubility constant Hcp ([1]; reference: Lind and Kok (1994)): 990
Henry solubility constant Hcp [1, 3]: 820
Henry solubility constant Hcp ([1]; reference: Rivera-Rios (2018)): 1200
Henry solubility constant Hcp ([1]; reference: Zhou and Lee (1992)): 850
Henry solubility constant Hcp at 293 K ([2]; reference: Yoshizumi et al. (1984)): 1400

Cc1cccc(O)c1C [1-hydroxy-2,3-dimethylbenzene]
Henry solubility constant Hcp ([1]; reference: Dohnal and Fenclová (1995)): 10
Henry solubility constant Hcp at 293 K [2, 4]: 9.3

CCCC(=O)OO[N+](=O)[O-] [nitro butaneperoxoate]
Henry solubility constant Hcp at 293 K [2, 5]: 0.023

FC(F)(Cl)Cl [dichlorodifluoromethane]
Henry solubility constant Hcp [1, 6]: 3.1e-05
Henry solubility constant Hcp ([1]; reference: Park et al. (1982)): 2.9e-05
Henry solubility constant Hcp ([1]; reference: Reichl (1995)): 3e-05
Henry solubility constant Hcp ([1]; reference: Scharlin and Battino (1994)): 2.9e-05
Henry solubility constant Hcp ([1]; reference: Scharlin and Battino (1995)): 2.9e-05
Henry solubility constant Hcp ([1]; reference: Warner and Weiss (1985)): 2.9e-05
Henry solubility constant Hcp at 293 K [2, 7]: 2.5e-05

ClC(Cl)(Cl)Cl [tetrachloromethane]
Henry solubility constant Hcp ([1]; reference: Balls (1980)): 0.00032
Henry solubility constant Hcp [1, 8]: 0.00028
Henry solubility constant Hcp ([1]; reference: Bullister and Wisegarver (1998)): 0.00029
Henry solubility constant Hcp ([1]; reference: Chen et al. (2012)): 0.0003
Henry solubility constant Hcp ([1]; reference: Gossett (1987)): 0.00033
Henry solubility constant Hcp ([1]; reference: Hartkopf and Karger (1973)): 0.00037
Henry solubility constant Hcp [1, 9]: 0.00041
Henry solubility constant Hcp ([1]; reference: Lutsyk et al. (2005)): 0.00034
Henry solubility constant Hcp ([1]; reference: Munz and Roberts (1986)): 0.00042
Henry solubility constant Hcp [1, 6]: 0.00033
Henry solubility constant Hcp ([1]; reference: Park et al. (1997)): 0.00039
Henry solubility constant Hcp ([1]; reference: Tancrède and Yanagisawa (1990)): 0.00034
Henry solubility constant Hcp [1, 10]: 0.00033
Henry solubility constant Hcp at 293 K [2, 11]: 0.0004
Henry solubility constant Hcp at 293 K [2, 7]: 0.00045
Henry solubility constant Hcp at 293 K [2, 12]: 0.00043

CC#N [ethanenitrile]
Henry solubility constant Hcp ([1]; reference: Bebahani et al. (2002)): 0.49
Henry solubility constant Hcp ([1]; reference: Benkelberg et al. (1995)): 0.53
Henry solubility constant Hcp ([1]; reference: Hamm et al. (1984)): 0.53
Henry solubility constant Hcp ([1]; reference: Ji and Evans (2007)): 0.52
Henry solubility constant Hcp ([1]; reference: Snider and Dawson (1985)): 0.48
Henry solubility constant Hcp at 293 K ([2]; reference: Yu (1992)): 0.082

Oc1ccc(Cl)cc1Cl [2,4-dichlorophenol]
Henry solubility constant Hcp ([1]; reference: Tabai et al. (1997)): 6.6
Henry solubility constant Hcp at 293 K [2, 4]: 3.4

ClC(Cl)=C(Cl)C(Cl)=C(Cl)Cl [hexachlorobutadiene]
Henry solubility constant Hcp [1, 10]: 0.00096
Henry solubility constant Hcp at 293 K [2, 7]: 0.0004

OBr [hypobromous acid]
Henry solubility constant Hcp at 293 K [2, 13]: > 19
Henry solubility constant Hcp at 293 K ([2]; reference: McCoy et al. (1990)): 19

CN(C)N=O [N-nitrosodimethylamine]
Henry solubility constant Hcp ([1]; reference: Klein (1982)): 6.1
Henry solubility constant Hcp ([1]; reference: Thompson et al. (2018)): 0.29
Henry solubility constant Hcp at 293 K ([2]; reference: Haruta et al. (2011)): 4.1

CC(Cl)(Cl)Cl [1,1,1-trichloroethane]
Henry solubility constant Hcp [1, 8]: 0.00051
Henry solubility constant Hcp ([1]; reference: Chen et al. (2012)): 0.00054
Henry solubility constant Hcp ([1]; reference: Ervin et al. (1980)): 0.00027
Henry solubility constant Hcp ([1]; reference: Gossett (1987)): 0.00059
Henry solubility constant Hcp ([1]; reference: Gossett et al. (1985)): 0.00057
Henry solubility constant Hcp [1, 9]: 0.00076
Henry solubility constant Hcp ([1]; reference: Lincoff and Gossett (1984)): 0.00059
Henry solubility constant Hcp [1, 6]: 0.00058
Henry solubility constant Hcp ([1]; reference: Robbins et al. (1993)): 0.00055
Henry solubility constant Hcp ([1]; reference: Turner et al. (1996)): 0.00048
Henry solubility constant Hcp ([1]; reference: Vane and Giroux (2000)): 0.00062
Henry solubility constant Hcp [1, 10]: 0.002
Henry solubility constant Hcp at 293 K [2, 11]: 0.00071
Henry solubility constant Hcp at 293 K [2, 7]: 0.00029
Henry solubility constant Hcp at 293 K [2, 12]: 0.00063

COP(=O)(OC)OC [phosphoric acid, trimethyl ester]
Henry solubility constant Hcp at 293 K [2, 14]: 1400

C=C(Cl)Cl [1,1-dichloroethene]
Henry solubility constant Hcp [1, 8]: 0.00034
Henry solubility constant Hcp ([1]; reference: Ervin et al. (1980)): 0.00014
Henry solubility constant Hcp ([1]; reference: Gossett (1987)): 0.00038
Henry solubility constant Hcp [1, 10]: 0.00066
Henry solubility constant Hcp at 293 K [2, 11]: 0.00044
Henry solubility constant Hcp at 293 K [2, 7]: 6.6e-05
Henry solubility constant Hcp at 293 K [2, 12]: 0.00013

OCl [hypochlorous acid]
Henry solubility constant Hcp ([1]; reference: Hanson and Ravishankara (1991)): 4.7
Henry solubility constant Hcp ([1]; reference: Holzwarth et al. (1984)): 6
Henry solubility constant Hcp ([1]; reference: Imagawa (1950)): 12
Henry solubility constant Hcp ([1]; reference: Ourisson and Kastner (1939)): 6.4
Henry solubility constant Hcp at 293 K [2, 13]: 9.1
Henry solubility constant Hcp at 293 K ([2]; reference: McCoy et al. (1990)): 9

c1ccc2c(c1)Cc1ccccc1-2 [2,3-benzindene]
Henry solubility constant Hcp ([1]; reference: Bamford et al. (1999b)): 0.079
Henry solubility constant Hcp [1, 10]: 0.084
Henry solubility constant Hcp at 293 K [2, 15]: 0.15

CCCOP(=O)(OCCC)OCCC [tripropyl phosphate]
Henry solubility constant Hcp at 293 K [2, 14]: 15

CCOP(=S)(OCC)Oc1nc(Cl)c(Cl)cc1Cl [chlorpyrifos]
Henry solubility constant Hcp at 293 K ([2]; reference: Rice et al. (1997b)): 3.1

CCOP(=O)(OCC)OCC [triethylphosphate]
Henry solubility constant Hcp at 293 K [2, 14]: 270

c1ccc2c(c1)-c1cccc3cccc-2c13 [benzo[jk]fluorene]
Henry solubility constant Hcp at 293 K [2, 15]: 0.91

Cc1ccc2ccccc2c1 [2-methylnaphthalene]
Henry solubility constant Hcp at 293 K [2, 15]: 0.022

CC(C)C(=O)OO[N+](=O)[O-] [peroxy-isobutyryl nitrate]
Henry solubility constant Hcp at 293 K [2, 5]: 0.0099

COc1c(Cl)cc(Cl)cc1Cl [1,3,5-trichloro-2-methoxybenzene]
Henry solubility constant Hcp ([1]; reference: Wu et al. (2022a)): 0.023

FCF [difluoromethane]
Henry solubility constant Hcp ([1]; reference: Anderson (2011)): 0.00068
Henry solubility constant Hcp ([1]; reference: Kutsuna (2017)): 0.00064
Henry solubility constant Hcp ([1]; reference: Maaßen (1995)): 0.00069
Henry solubility constant Hcp ([1]; reference: Miguel et al. (2000)): 0.0003
Henry solubility constant Hcp ([1]; reference: Reichl (1995)): 0.00069

CC1(C)[C@H]2CC[C@](C)(C2)[C@H]1O [(1R)-1,3,3-trimethylbicyclo[2.2.1]heptan-2-ol]
Henry solubility constant Hcp ([1]; reference: Fichan et al. (1999)): 0.36

ClC1(Cl)C2(Cl)C3(Cl)C4(Cl)C(Cl)(Cl)C5(Cl)C3(Cl)C1(Cl)C5(Cl)C24Cl (stereo not drawn) [mirex]
Henry solubility constant Hcp ([1]; reference: Yin and Hassett (1986)): 0.012

Clc1ccc(Cl)c(-c2ccccc2Cl)c1 [2,2',5-trichlorobiphenyl]
Henry solubility constant Hcp [1, 16]: 0.049

O=NO [nitrous acid]
Henry solubility constant Hcp ([1]; reference: Becker et al. (1996)): 0.47
Henry solubility constant Hcp ([1]; reference: Becker et al. (1998)): 0.47
Henry solubility constant Hcp ([1]; reference: Komiyama and Inoue (1978)): 0.37
Henry solubility constant Hcp ([1]; reference: Park and Lee (1988)): 0.48

Cc1cccc(C=O)c1 [3-methylbenzaldehyde]
Henry solubility constant Hcp ([1]; reference: Wu et al. (2022b)): 0.3

[CH3][Sn]([CH3])([CH3])[CH3] [tetramethylstannane]
Henry solubility constant Hcp ([1]; reference: Abraham and Nasehzadeh (1981)): 9.4e-06

O=NCl [nitrosyl chloride]
Henry solubility constant Hcp ([1]; reference: Scheer et al. (1997)): > 0.00049

CC(=O)O[O] [peroxyacetyl radical]
Henry solubility constant Hcp ([1]; reference: Villalta et al. (1996)): < 0.00099

OCOO [hydroxymethyl hydroperoxide]
Henry solubility constant Hcp [1, 3]: 16000
Henry solubility constant Hcp ([1]; reference: Staffelbach and Kok (1993)): 16000
Henry solubility constant Hcp ([1]; reference: Zhou and Lee (1992)): 4700

CCc1nccnc1OC [2-ethyl-3-methoxypyrazine]
Henry solubility constant Hcp ([1]; reference: Buttery et al. (1971)): 0.67

ClC1C(Cl)C(Cl)C(Cl)C(Cl)C1Cl (stereo not drawn) [β-1,2,3,4,5,6-hexachlorocyclohexane]
Henry solubility constant Hcp ([1]; reference: Sahsuvar et al. (2003)): 28

Clc1cccc(-c2ccccc2Cl)c1 [2,3'-dichlorobiphenyl]
Henry solubility constant Hcp [1, 16]: 0.047

Clc1cc(Cl)c2c(c1Cl)Oc1ccccc1O2 [1,2,4-trichlorodibenzo-p-dioxin]
Henry solubility constant Hcp ([1]; reference: Santl et al. (1994)): 0.27

CC(C)(C)OC=O [(1,1-dimethylethyl)-methanoate]
Henry solubility constant Hcp ([1]; reference: Arp and Schmidt (2004)): 0.014

C=C(C)C(=O)O [2-methyl-2-propenoic acid]
Henry solubility constant Hcp ([1]; reference: Khan et al. (1992)): 25

Cc1c[nH]c2ccccc12 [3-methylindole]
Henry solubility constant Hcp ([1]; reference: Wetlaufer et al. (1964)): 2.9e-05

Reference: Sander's compilation of Henry's law constants
